Measurements: ChEMBL document CHEMBL5465560, “Selectivity Literature for EUbOPEN Chemogenomic Library” (2024)

What was measured:
[1] = target: T1, Peripheral plasma membrane protein CASK (Homo sapiens) (UniProt O14936); assay: Selectivity interaction (KinomeScan (DiscoverX)) EUB0000618a CASK; details: at 10 µM
T1 sequence (whole entry): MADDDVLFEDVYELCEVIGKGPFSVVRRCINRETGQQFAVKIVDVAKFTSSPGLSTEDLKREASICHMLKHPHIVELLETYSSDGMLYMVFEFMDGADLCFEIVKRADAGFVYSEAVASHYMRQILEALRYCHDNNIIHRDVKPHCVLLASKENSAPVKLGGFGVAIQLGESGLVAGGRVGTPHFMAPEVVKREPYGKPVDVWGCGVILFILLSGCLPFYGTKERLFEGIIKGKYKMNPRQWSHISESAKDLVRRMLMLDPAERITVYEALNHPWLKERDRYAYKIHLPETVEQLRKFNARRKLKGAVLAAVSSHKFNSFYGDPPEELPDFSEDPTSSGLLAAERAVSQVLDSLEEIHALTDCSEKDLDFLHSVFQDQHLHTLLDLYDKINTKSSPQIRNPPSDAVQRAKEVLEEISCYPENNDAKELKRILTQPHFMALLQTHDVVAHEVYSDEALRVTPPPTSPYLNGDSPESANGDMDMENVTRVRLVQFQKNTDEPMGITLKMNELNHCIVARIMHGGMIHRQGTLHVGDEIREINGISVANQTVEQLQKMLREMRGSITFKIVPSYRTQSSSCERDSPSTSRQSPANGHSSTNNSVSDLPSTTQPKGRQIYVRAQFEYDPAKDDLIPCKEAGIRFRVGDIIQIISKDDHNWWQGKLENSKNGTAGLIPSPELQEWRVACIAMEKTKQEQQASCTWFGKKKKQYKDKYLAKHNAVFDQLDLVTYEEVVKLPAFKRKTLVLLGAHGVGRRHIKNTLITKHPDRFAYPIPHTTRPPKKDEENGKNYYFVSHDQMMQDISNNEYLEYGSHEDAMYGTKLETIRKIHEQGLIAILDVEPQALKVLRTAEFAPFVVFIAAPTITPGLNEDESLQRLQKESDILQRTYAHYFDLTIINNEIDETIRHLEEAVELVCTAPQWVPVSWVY

[2] = target: T2, Serine/threonine-protein kinase Nek9 (Homo sapiens) (UniProt Q8TD19); assay: Selectivity interaction (KinomeScan (DiscoverX)) EUB0001619a NEK9; details: at 1 µM
T2 sequence (whole entry): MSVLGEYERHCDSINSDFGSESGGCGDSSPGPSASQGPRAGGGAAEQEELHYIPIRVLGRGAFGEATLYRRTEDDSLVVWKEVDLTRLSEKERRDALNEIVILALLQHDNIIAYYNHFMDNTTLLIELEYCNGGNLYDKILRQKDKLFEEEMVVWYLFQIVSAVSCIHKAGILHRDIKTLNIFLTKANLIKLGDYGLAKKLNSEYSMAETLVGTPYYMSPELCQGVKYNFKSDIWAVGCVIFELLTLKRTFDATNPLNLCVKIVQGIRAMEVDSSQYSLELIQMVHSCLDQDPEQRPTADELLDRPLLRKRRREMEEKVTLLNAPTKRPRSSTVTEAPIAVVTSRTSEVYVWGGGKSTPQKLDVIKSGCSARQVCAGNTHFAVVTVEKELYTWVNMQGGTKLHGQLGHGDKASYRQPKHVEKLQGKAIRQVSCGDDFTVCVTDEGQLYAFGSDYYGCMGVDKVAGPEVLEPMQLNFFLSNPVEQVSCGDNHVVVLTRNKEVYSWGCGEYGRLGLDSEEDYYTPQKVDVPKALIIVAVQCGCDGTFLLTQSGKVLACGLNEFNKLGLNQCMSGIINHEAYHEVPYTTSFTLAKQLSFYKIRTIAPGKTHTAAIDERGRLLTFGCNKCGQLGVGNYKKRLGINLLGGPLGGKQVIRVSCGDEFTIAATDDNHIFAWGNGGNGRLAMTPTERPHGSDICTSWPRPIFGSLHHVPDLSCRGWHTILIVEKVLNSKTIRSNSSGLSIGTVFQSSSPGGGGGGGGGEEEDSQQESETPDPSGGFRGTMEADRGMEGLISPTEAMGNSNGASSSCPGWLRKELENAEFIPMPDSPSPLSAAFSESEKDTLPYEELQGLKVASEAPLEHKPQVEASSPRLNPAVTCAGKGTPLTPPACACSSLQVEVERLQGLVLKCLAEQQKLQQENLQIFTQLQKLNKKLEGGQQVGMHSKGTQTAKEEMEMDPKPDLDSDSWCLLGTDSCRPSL

[3] = target: Serine/threonine-protein kinase N1 (Homo sapiens, UniProt Q16512); assay: Selectivity interaction (KinomeScan (DiscoverX)) EUB0001619a PKN1; details: at 1 µM
Chain of Serine/threonine-protein kinase N1 (Q16512 2-942 limits assumed): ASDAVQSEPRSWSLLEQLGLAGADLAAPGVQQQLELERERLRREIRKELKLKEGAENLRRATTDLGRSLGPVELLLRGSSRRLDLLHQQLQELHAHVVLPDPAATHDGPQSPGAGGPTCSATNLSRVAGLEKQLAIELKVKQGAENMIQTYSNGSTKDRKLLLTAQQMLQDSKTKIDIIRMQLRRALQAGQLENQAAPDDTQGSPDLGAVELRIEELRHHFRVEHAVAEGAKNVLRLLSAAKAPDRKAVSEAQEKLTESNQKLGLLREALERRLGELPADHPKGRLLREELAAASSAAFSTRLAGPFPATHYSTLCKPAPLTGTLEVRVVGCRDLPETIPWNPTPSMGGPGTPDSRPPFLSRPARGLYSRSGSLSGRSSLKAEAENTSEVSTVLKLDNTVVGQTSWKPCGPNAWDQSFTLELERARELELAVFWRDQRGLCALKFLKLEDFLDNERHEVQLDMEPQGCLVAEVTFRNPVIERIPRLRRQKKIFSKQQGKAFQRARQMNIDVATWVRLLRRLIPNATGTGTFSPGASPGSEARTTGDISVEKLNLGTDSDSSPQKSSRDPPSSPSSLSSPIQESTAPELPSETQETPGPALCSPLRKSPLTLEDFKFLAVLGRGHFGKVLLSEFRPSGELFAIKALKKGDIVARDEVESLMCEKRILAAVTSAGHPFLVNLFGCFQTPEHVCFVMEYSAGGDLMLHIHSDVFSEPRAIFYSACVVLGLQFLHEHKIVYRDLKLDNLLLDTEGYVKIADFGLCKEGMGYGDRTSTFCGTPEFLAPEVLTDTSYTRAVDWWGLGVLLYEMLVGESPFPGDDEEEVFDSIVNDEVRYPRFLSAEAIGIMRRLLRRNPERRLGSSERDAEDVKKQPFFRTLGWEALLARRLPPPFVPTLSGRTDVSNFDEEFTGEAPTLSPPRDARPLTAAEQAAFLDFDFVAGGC

[4] = target: Mitogen-activated protein kinase kinase kinase kinase 4 (Homo sapiens, UniProt O95819); assay: Selectivity interaction (Kinase panel (KiNativ target engagement assay in Jurkat cells)) EUB0001635a MAP4K4; type: cell-based; details: Selectivity number of off-targets 0.0, Selectivity number of targets 233.0, Source Knowledge https://www.sciencedirect.com/science/article/pii/S2451945619300674?via%3Dihub, at 1 µM
Chain of Mitogen-activated protein kinase kinase kinase kinase 4 (O95819 2-1239 limits assumed): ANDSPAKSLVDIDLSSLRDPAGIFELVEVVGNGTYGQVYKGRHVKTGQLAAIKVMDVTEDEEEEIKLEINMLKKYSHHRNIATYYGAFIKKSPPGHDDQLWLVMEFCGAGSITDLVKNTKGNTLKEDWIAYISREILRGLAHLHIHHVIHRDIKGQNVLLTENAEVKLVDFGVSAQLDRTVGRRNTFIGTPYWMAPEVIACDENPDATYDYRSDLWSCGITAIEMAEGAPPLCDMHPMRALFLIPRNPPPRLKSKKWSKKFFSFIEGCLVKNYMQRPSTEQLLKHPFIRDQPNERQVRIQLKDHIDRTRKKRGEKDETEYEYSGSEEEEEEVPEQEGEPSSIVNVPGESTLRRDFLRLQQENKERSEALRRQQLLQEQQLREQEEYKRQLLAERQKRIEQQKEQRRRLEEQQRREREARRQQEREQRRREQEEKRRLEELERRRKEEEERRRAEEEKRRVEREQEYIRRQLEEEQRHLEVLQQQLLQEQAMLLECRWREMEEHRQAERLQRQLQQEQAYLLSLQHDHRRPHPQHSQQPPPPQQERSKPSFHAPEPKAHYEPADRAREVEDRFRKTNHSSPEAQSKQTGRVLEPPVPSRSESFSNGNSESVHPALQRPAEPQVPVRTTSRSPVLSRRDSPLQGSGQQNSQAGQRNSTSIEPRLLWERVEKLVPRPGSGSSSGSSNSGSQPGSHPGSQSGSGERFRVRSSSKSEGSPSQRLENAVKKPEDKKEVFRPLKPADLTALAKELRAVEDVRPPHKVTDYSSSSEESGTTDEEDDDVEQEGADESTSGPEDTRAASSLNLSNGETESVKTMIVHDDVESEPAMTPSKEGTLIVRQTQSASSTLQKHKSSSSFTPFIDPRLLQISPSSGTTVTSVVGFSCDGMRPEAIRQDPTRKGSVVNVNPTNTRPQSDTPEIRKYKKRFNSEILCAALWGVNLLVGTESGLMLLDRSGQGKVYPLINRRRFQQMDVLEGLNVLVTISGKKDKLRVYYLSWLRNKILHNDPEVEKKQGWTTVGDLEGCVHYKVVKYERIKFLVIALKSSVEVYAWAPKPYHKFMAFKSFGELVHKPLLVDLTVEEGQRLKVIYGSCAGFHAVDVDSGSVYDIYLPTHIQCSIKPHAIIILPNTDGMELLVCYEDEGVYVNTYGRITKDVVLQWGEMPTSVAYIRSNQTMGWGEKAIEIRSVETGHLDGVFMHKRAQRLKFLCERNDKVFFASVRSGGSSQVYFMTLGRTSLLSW

[5] = target: T3, Mitogen-activated protein kinase kinase kinase 7 (Homo sapiens) (UniProt O43318); details: at 10 µM
T3 sequence (whole entry): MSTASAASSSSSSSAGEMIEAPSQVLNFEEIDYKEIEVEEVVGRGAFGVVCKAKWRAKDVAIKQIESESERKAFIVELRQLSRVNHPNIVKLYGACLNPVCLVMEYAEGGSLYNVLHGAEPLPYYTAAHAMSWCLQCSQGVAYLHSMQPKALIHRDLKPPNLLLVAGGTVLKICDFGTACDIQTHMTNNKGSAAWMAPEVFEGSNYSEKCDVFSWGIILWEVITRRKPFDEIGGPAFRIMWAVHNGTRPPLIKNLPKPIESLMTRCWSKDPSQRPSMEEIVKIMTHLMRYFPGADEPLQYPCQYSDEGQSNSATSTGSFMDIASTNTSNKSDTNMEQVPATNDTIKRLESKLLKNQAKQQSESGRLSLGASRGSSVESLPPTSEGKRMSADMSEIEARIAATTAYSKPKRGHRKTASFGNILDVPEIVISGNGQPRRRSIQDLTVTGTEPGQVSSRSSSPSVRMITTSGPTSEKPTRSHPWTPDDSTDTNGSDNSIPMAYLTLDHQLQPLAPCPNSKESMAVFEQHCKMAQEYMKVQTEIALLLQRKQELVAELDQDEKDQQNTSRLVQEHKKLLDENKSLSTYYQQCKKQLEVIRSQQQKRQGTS

[6] = target: Phosphatidylinositol 4-phosphate 3-kinase C2 domain-containing subunit beta (Homo sapiens) (UniProt O00750); assay: Selectivity interaction (KinomeScan (DiscoverX)) EUB0000229b PIK3C2B; details: at 10 µM
Chain of Phosphatidylinositol 4-phosphate 3-kinase C2 domain-containing subunit beta (Homo sapiens) (O00750 whole entry, the tested form may be a part): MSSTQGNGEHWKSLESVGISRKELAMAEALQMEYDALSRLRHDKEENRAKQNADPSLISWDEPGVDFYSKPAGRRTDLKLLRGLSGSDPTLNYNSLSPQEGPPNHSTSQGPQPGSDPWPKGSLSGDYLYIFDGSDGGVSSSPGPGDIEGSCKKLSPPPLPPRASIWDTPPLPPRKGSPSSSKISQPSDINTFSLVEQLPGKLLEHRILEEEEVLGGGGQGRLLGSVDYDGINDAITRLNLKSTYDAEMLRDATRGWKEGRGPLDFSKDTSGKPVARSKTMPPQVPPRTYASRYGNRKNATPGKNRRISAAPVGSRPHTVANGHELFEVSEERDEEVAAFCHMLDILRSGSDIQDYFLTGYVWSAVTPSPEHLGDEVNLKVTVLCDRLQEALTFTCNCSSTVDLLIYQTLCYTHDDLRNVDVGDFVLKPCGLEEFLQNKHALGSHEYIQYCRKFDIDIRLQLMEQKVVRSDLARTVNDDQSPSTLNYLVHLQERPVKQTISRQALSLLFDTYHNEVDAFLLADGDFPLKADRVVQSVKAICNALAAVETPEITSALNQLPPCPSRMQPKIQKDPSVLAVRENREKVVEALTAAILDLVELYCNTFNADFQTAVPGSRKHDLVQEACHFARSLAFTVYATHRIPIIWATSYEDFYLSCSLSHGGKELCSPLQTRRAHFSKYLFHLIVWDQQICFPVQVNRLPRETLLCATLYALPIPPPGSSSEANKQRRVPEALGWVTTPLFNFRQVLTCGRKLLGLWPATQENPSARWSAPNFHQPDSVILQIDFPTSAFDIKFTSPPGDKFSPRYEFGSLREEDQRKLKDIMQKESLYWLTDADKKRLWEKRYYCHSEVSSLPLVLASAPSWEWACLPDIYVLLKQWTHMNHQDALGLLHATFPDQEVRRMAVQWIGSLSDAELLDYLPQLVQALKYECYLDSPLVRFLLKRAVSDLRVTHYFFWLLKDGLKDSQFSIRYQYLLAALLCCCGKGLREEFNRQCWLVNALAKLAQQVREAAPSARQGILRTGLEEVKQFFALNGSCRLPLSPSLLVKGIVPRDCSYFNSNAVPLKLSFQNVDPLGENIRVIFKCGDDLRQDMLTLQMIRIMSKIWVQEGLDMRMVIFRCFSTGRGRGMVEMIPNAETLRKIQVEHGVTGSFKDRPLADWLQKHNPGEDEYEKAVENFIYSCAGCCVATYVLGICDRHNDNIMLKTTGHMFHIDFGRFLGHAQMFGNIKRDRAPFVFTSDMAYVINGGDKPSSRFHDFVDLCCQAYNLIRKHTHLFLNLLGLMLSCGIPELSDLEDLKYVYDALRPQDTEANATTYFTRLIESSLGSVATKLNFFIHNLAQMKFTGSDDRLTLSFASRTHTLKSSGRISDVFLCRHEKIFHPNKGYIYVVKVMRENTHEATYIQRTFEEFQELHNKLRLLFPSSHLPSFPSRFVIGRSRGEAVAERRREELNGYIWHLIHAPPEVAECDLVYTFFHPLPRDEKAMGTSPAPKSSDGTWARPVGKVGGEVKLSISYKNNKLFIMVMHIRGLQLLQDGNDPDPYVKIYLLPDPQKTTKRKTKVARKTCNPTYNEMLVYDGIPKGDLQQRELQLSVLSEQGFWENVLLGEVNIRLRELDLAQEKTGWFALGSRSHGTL

O[C@H]1CC[C@H](Nc2ncc3nc(Nc4c(F)cc(F)cc4F)n([C@H]4CCOC4)c3n2)CC1
% of control [1]: 95%

N#Cc1cccc(-c2c[nH]c3ncnc(N4CCOCC4)c23)c1
% of control [2]: 97%
% of control [3]: 62%

C=CC(=O)Nc1ccc(C(=O)Nc2[nH]nc3c2CN(C(=O)N[C@H](CN(C)C)c2ccccc2)C3(C)C)cc1
% of engagement [4]: -15.4%

Cc1cc([C@@H](C)Nc2ccccc2C(=O)O)c2nc(N3CCOCC3)cc(=O)n2c1 [AZD-6482]
% of control [5]: 89%

COc1cc(N(C)c2ccnc3ccc(C(F)(F)F)cc23)cc(OC)c1OC
% binding [6]: 100%
